Data set [1] relates to surface CD38 on three multiple myeloma cells lines. Kind of data set: Antibody Binding Capacity assay (QuantiBrite), CD38 molecules. The format is cell-based, human. Conditions: 65-72 hours treatment. The protocol: FIG. 14. Antibody Binding Capacity assay (QuantiBrite, BD Biosciences) was used according to manufacturer instructions to measure the absolute number of CD38 molecules on the self-surface and accessible to antibody binding following 65-72 hours treatment of ATRA on three multiple myeloma cells lines.

For data set [2], the system named is CD38 receptor expression in MM cell lines (U266, H929 and L363). Kind of data set: ATRA effect on CD38 receptor expression in vitro. The format is cell-based, human. From the text:
FIG. 12. […] These studies generated data to refine the process of manipulating CD38 receptor density for the purpose of increasing targeted delivery of radiolabeled DOTA-biotin after CD38 tumor cell pretargeting.

Data set [3] is described as follows: Blood clearance time course of BCMA bispecific with or without GSI. On the set-up: species or system mice. Conditions: mouse, in vivo. From the text:
FIG. 15. To ensure our clearing agent was able to effectively clear unbound agent from the blood stream, we conducted a time course experiment to test the impact of the clearing agent on the BCMA bispecific in the presence or absence of GSI. The percent of the injected dose (% ID) was monitored in the blood during a time course experiment by measuring the relative amount of Yttrium^90 in blood samples obtained from mice.

Data set [4] deals with surface BCMA on three multiple myeloma cells lines. Kind of data set: Antibody Binding Capacity assay (QuantiBrite), BCMA molecules. The following applies: 5 μM, 17 hours incubation. The class given is cell-based, human. As for the experimental part: FIG. 13. Antibody Binding Capacity assay (QuantiBrite, Cat. No. 340495, BD Biosciences) was used according to manufacturer instructions to measure the absolute number of BCMA molecules on the self-surface and accessible to antibody binding following 17 hours incubation in the presence or absence of 5 μM gamma secretase inhibitor (R04929097) on three multiple myeloma cells lines.

For data set [5], the system named is surface BCMA on MM cell lines (RPMI8226, U266B1, MM1.R, H929) and primary MM samples. Kind of data set: Effect of GSI on BCMA expression, flow cytometry. The class given is cell-based, human. From the text:
FIGS. 11A-11D. Dose dependent effect of the gamma secretase inhibitor, R04929097, on BCMA expression on 4 MM cell lines (11A, 11B) and 7 primary MM samples (11C, 11D). (11A) Surface BCMA expression by MM.1R cells cultured with the indicated concentrations of R04929097; staining with anti-BCMA antibody (black lines) compared to isotype control (grey line). (11B) Fold-change in surface BCMA expression by MM cell lines when cultured with the indicated concentrations of R04929097; fold change indicated relative to untreated MM cells of the same line. (11C) Surface BCMA expression by primary patient MM cells cultured with the indicated concentrations of R04929097. Staining was as described in regard to FIG. 11A. (11D) Fold change in BCMA on primary myeloma cells (n=7) cultured with vary amounts of GSI for […]. Primary and cell lines were cultured at 0.5×10^6 cells/mL. Fold change in BCMA is defined as Treated (MFIBCMA-MFIiso)/Control (MFIBCMA-MFIiso). Data is representative of 3 independent experiments with T cells derived from different donors.
The effect of GSI on BCMA expression was evaluated by incubating four MM cell lines (RPMI8226, U266B1, MM1.R, and H929) and primary MM samples in media containing 0 (DMSO), 0.01, 0.1, and 1.0 μM of GSI and measuring surface BCMA at 5 hr. […] These concentrations are 3-30 fold below the serum levels that are achieved by well tolerated oral dosing regimens of GSI in phase 1 trials in cancer patients.
(Flow cytometry measures light scatter and fluorescence of single cells or particles in a stream.)

A value given as a limit tells only on which side of the number the result lay.

On to `CC1=C(/C=C/C(C)=C/C=C/C(C)=C/C(=O)O)C(C)(C)CCC1` [ATRA, all-trans retinoic acid], for which the “number of CD38 molecules on the cell surface” value in data set [1] is “upregulates surface CD38 target expression”. The CD38 receptor expression entry in data set [2] (U266 MM line, solubilized ATRA) is recorded as “striking dose dependent increase in expression”; in data set [2] (three MM cell lines (U266, H929 and L363)) it was “dose dependent increase”.
For the molecule `CC(C)(C(=O)NCC(F)(F)C(F)(F)F)C(=O)N[C@@H]1C(=O)Nc2ccccc2-c2ccccc21` [R04929097], in data set [3], the “blood clearance of BCMA bispecific fusion in combination with GSI” value was “further facilitated blood clearance”. Further, the “number of BCMA molecules on the cell surface” value in data set [4] is “upregulates surface BCMA target expression”. Besides, the “effect on cell viability” value in data set [5] (0.01, 0.1, and 1.0 μM, 5 hr) was “did not affect cell viability”. For the same molecule, the “concentration of maximal increase in MFI of BCMA staining” value in data set [5] (0.01-1.0 μM tested, 5 hr) worked out at 1.0 µM. Also, the “soluble BCMA levels” value in data set [5] (0.1 and 1.0 μM) is on record as “decline in soluble BCMA levels”. Further, the “change in MFI of BCMA staining” value in data set [5] (all 4 cell lines and primary MM cells, 5 hr) was “marked increase”. Further, the “time to upregulation of BCMA after GSI exposure” value in data set [5] (time course) is ≤ 1 h.

Source of the values: patent publication US11970542B2, “Bispecific antibodies specific for treating hematological malignancies” (FRED HUTCHINSON CANCER CENTER, priority 2017, dated 2024).
